Activity calls are given as the source filed them. No cut-off for these calls is given here.
Key:
RAW264.7 [1] = assay: Antiinflammatory activity in LPS-induced mouse RAW264.7 cells assessed as inhibition of PGE2 production at 10 uM pretreated for 1 hr followed by LPS stimulation and measured after 24 to 48 hrs by ELISA; format: functional, cell-based; details: time 25-49 hrs
Mus musculus = species: Mus musculus; assay: Analgesic activity in mouse model assessed as reduction in acetic acid induced inflammatory pain; format: functional, organism-based
RAW264.7 [2] = assay: Antiinflammatory activity against LPS-induced mouse RAW264.7 cells assessed as inhibition of phosphorylated p38 MAPK protein expression pretreated for 1 hr followed by LPS stimulation and measured after 24 hrs by Western blot analysis; format: functional, cell-based; details: dose 2.5-10 µM, time 25.0 hrs
Rattus norvegicus [3] = assay: Immunomodulatory activity in Freund's complete adjuvant induced Lewis rat model of arthritis assessed as increase in IL-10 level in serum at 20 mg/kg, po administered every 24 to 48 hrs for 28 days post immunization starting from day 8 post immunization by ELISA; format: functional, organism-based; details: time 21.0 day
Rattus norvegicus [4] = assay: Immunomodulatory activity in Freund's complete adjuvant induced Lewis rat model of arthritis assessed as increase in CD4positive CD25positive Treg cells in spleen at 20 mg/kg, po administered every 24 hrs for 28 days post immunization starting from day 8 post immunization by flow cytometry analysis; format: functional, organism-based; details: time 21.0 day
[5] = Hepatotoxicity in male Wistar rat assessed as effect on glutamic oxalacetic transaminase level at 20 mg/kg, po administered for 3 days; format: toxicity, organism-based; details: in vivo, 72 h, time 3 day
Rattus norvegicus [6] = assay: Antiarthritic activity in Freund's complete adjuvant induced Lewis rat model of arthritis assessed as reduction in arthritis score at 20 mg/kg, po administered every 24 to 48 hrs for 28 days post immunization starting from day 8 post immunization; format: functional, organism-based; details: time 21.0 day
RAW264.7 [7] = assay: Antiinflammatory activity against LPS-induced mouse RAW264.7 cells assessed as inhibition of COX-2 protein expression pretreated for 1 hr followed by LPS stimulation and measured after 24 hrs by Western blot analysis; format: functional, cell-based; details: dose 2.5-10 µM, time 25.0 hrs
[8] = Toxicity in male Wistar rat assessed as gastrointestinal damage by measuring level-3 ulcers with >3 mm area at 100 mg/kg administered by gavage and measured after 6 hrs; format: organism-based; details: in vivo, po
RAW264.7 [9] = assay: Antiinflammatory activity in LPS-induced mouse RAW264.7 cells assessed as inhibition of NO production at 10 uM pretreated for 1 hr followed by LPS stimulation and measured over 48 hrs by griess reagent based assay; format: functional, cell-based; details: time > 49.0 hrs
[10] = Nephrotoxicity in male Wistar rat assessed as effect on blood urea nitrogen level at 20 mg/kg, po administered for 3 days; format: toxicity, organism-based; details: in vivo, 72 h, time 3 day
[11] = Toxicity in male Wistar rat assessed as gastrointestinal damage by measuring level-3 ulcers with >3 mm area at 50 mg/kg administered by gavage and measured after 6 hrs; format: organism-based; details: in vivo, po
Rattus norvegicus [12] = assay: Antiarthritic activity in Freund's complete adjuvant induced Lewis rat model of arthritis assessed as inhibition of left hind paw edema at 20 mg/kg, po administered every 24 to 48 hrs for 28 days post immunization starting from day 8 post immunization; format: functional, organism-based; details: time 21.0 day
[13] = Toxicity in male Wistar rat assessed as gastrointestinal damage by measuring number of ulcers at 100 mg/kg administered by gavage and measured after 6 hrs (reference value: 0); format: organism-based; details: in vivo, po
Rattus norvegicus [14] = assay: (§1) Antiarthritic activity in Freund's complete adjuvant induced Lewis rat model of arthritis assessed as reduction in joint tissue damage by measuring reduction in cartilage degeneration at 20 mg/kg, po administered every 24 hrs for 28 days post immunization starting from day 8 post immunization by H and E staining based analysis; format: functional, organism-based; details: time 21.0 day
[15] = Toxicity in male Wistar rat assessed as gastrointestinal damage by measuring level-2 ulcers with 1 to 3 mm area at 50 mg/kg administered by gavage and measured after 6 hrs; format: organism-based; details: in vivo, po
[16] = Toxicity in male Wistar rat assessed as gastrointestinal damage by measuring number of ulcers at 50 mg/kg administered by gavage and measured after 6 hrs (reference value: 0); format: organism-based; details: in vivo, po
Rattus norvegicus [17] = assay: as §1, with “synovial hyperplasia” for “cartilage degeneration”; format: functional, organism-based; details: time 21.0 day
Rattus norvegicus [18] = assay: as §1, with “inflammatory cell infiltration” for “cartilage degeneration”; format: functional, organism-based; details: time 21.0 day
[19] = biological target: T1, Cytosolic phospholipase A2 (Mus musculus) (UniProt P47713); assay: Binding affinity to cPLA2 in LPS-induced mouse RAW264.7 cells assessed as thermal stability at 45 to 53 degreeC at 30 uM pretreated with LPS for 24 hrs followed by compound addition and measured after 2 hrs by CETSA; format: cell-based
T1 sequence (whole entry): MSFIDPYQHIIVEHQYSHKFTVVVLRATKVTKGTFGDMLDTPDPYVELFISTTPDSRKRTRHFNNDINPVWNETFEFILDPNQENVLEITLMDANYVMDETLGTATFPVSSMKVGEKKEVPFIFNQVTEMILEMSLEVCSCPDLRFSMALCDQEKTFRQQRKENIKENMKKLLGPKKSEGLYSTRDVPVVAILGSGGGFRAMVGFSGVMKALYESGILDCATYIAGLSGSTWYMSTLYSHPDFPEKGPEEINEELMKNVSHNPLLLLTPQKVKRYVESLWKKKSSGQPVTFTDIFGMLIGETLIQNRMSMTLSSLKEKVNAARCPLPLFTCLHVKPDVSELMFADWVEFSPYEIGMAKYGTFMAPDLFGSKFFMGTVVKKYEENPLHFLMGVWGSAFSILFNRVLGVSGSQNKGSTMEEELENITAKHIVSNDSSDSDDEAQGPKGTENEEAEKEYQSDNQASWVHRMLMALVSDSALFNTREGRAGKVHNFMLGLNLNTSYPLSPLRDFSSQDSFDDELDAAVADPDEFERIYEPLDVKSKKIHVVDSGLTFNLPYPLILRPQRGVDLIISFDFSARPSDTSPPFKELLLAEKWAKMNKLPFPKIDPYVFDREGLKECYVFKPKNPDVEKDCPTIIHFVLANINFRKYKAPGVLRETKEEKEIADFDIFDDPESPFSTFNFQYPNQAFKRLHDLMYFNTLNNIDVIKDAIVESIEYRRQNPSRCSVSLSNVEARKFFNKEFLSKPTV

Rattus norvegicus [20] = assay: Immunomodulatory activity in Freund's complete adjuvant induced Lewis rat model of arthritis assessed as reduction in IL-17 level in serum at 20 mg/kg, po administered every 24 to 48 hrs for 28 days post immunization starting from day 8 post immunization by ELISA; format: functional, organism-based; details: time 21.0 day
Rattus norvegicus [21] = assay: Antiarthritic activity in Freund's complete adjuvant induced Lewis rat model of arthritis assessed as modulation of immune system responses by measuring reduction in spleen weight at 20 mg/kg, po administered every 24 to 48 hrs for 28 days post immunization starting from day 8 post immunization; format: functional, organism-based; details: time 21.0 day
RAW264.7 [22] = assay: Antiinflammatory activity in LPS-induced mouse RAW264.7 cells assessed as inhibition of NO production pretreated for 1 hr followed by LPS stimulation and measured after 24 hrs by griess reagent based assay; format: functional, cell-based
Rattus norvegicus [23] = assay: Antiarthritic activity in Freund's complete adjuvant induced Lewis rat model of arthritis assessed as reduction in PGE2 level in serum at 20 mg/kg, po administered every 24 to 48 hrs for 28 days post immunization starting from day 8 post immunization by ELISA; format: functional, organism-based; details: time 21.0 day

In the case of `CCCCC/C=C\C/C=C\C/C=C\C/C=C\CC/C=C(/OC(=O)C(C)c1ccc(C(=O)c2ccccc2)cc1)C(F)(F)F` (centres undefined), the Activity (RAW264.7 [1]) is reported as “Active”, the Activity (Mus musculus) is reported as “Active” and the Activity (RAW264.7 [2]) is reported as “Dose-Dependent Effect”. The Activity (Rattus norvegicus [3]) was “Active”, the Activity (Rattus norvegicus [4]) was “Active” and the Activity [5] was “Non-Toxic”. For the same compound, the Activity (Rattus norvegicus [6]) was “Active”, the Activity (RAW264.7 [7]) was “Dose-Dependent Effect” and the Activity [8] was 0%. For the same compound, the Activity (RAW264.7 [9]) was “Active”, the Activity [10] was “Non-Toxic” and the Activity [11] was 0%. For the same compound, the Activity (Rattus norvegicus [12]) was “Active”, the Activity [13] was 7 and the Activity (Rattus norvegicus [14]) was “Active”. For the same compound, the Activity [15] was 0%, the Activity [16] was 0 and the Activity (Rattus norvegicus [17]) was “Active”. The Activity (Rattus norvegicus [18]) was “Active”, the Activity [19] was “Active” and the Activity (Rattus norvegicus [20]) was “Active”. The Activity (Rattus norvegicus [21]) was “Active”, the IC50 (RAW264.7 [22]) was 3.85 µM and the Activity (Rattus norvegicus [23]) was “Active”.
